Reference: patent US20230000842A1, “METHODS OF TREATING CARTILAGE DISORDERS THROUGH INHIBITION OF CLK AND DYRK” (SAMUMED, LLC, priority 2019, published 2023)

Columns and labels:
[1] = target: CLK2 kinase (Homo sapiens, UniProt P49760); experiment: CLK2 kinase activity assay (Z-lyte FRET); type: biochemical; conditions: Z-lyte Ser/Thr 6 peptide, 60 μM ATP, 1 h at room temperature;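 also: FRET read-out as coumarin to fluorescein emission ratio, unphosphorylated peptide as 0% and phosphorylated peptide as 100% controls, duplicate reactions, non-linear regression fit of dose-response curves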
[2] = target: CLK3 kinase (Homo sapiens, UniProt P49761); experiment: CLK3 kinase activity assay (Z-lyte FRET); type: biochemical; conditions: Z-lyte Ser/Thr 18 peptide, 156 μM ATP, 1 h at room temperature;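 also: kinase activity read as coumarin/fluorescein emission ratio by FRET, unphosphorylated peptide as 0% and phosphorylated peptide as 100% control, values from non-linear regression of dose-response curves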
[3] = test system: primary human mesenchymal stem cells (hMSCs); experiment: Chondrogenesis screening using primary human mesenchymal stem cells; type: cell-based; conditions: Homo sapiens, Mesenchymal stem cells, hMSC chondrogenesis; for Emax: maximum activity relative to TGF-β3 (10 ng/mL) positive control, read-out: Max. Activity as % TGF-β3 activity; for EC50: concentration required to induce 50% levels of chondrogenesis with TGF-β3 as positive control, read-out: Conc (nM) of 50% TGF-β3 activity
Summary of the method: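 Primary hMSCs at passage 3–6 were treated across compound concentrations, with TGF-β3 as positive control. Chondrogenic nodule area per well was normalized to 3 DMSO wells on the same plate (fold over DMSO, 2–3 replicates). EC50, maximum activity and the dose reaching it were derived.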

[4] = test system: Wnt pathway activity (SW480 colon carcinoma cells stably expressing the Sp5-Luc reporter); experiment: Wnt pathway activity screening assay (Sp5-Luc reporter gene assay); conditions: Homo sapiens, SW480, Table 4; SW480 cells stably expressing Sp5-Luc reporter, 10-point dose-response from 10 μM, 36 to 48 hours

Chain of CLK2 kinase (P49760 whole entry): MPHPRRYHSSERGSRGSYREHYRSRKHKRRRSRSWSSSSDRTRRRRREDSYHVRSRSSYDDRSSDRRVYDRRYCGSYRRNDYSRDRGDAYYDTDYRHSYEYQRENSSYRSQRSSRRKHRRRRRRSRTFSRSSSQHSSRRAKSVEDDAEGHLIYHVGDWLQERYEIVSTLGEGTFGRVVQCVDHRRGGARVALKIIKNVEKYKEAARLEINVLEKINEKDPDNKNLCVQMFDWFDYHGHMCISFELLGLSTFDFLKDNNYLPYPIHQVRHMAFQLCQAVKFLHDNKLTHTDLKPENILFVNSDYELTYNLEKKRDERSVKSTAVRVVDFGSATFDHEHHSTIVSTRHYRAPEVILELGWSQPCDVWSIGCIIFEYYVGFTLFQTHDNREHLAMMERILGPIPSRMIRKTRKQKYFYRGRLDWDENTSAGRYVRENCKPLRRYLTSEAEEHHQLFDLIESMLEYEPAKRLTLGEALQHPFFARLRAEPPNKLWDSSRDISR
Chain of CLK3 kinase (P49761 whole entry): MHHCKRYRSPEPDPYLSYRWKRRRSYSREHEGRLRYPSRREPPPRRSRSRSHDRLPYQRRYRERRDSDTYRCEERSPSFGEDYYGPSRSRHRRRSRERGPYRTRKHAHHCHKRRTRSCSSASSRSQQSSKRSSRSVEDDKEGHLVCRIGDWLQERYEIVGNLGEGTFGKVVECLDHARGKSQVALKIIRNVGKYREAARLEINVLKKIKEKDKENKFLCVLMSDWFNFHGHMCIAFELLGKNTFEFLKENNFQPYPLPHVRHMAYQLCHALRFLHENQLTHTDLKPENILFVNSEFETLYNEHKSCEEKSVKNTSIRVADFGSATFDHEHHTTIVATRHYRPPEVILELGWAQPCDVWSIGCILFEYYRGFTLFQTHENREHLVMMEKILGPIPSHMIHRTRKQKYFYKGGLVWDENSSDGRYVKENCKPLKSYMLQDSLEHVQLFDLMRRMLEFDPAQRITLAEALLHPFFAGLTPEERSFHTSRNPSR

Structure (SMILES)	EC50 [1]	EC50 [2]	Emax [3]	EC50 [4]	EC50 [3]
CCC(=O)Nc1cncc(-c2cnc3[nH]nc(-c4nc5c(-c6cccs6)cncc5[nH]4)c3c2)c1 [compound 255]	3 nM	62 nM	69.8%	4 nM	–
CC(C)CC(=O)Nc1cncc(-c2ccc3[nH]nc(-c4nc5c(-c6cccs6)cncc5[nH]4)c3c2)c1 [compound 256]	9 nM	62 nM	53.3%	0.1 nM	–
O=C(Nc1cncc(-c2cc3c(-c4nc5c(-c6cccs6)nccc5[nH]4)n[nH]c3cn2)c1)C1CC1 [compound 257]	7 nM	115 nM	68.3%	22.2 nM	–
CN(C)c1cncc(-c2ccc3[nH]nc(-c4nc5c(-c6cccs6)cncc5[nH]4)c3n2)c1 [compound 258]	2 nM	83 nM	65.6%	710 nM	10 nM
c1csc(-c2cncc3[nH]c(-c4n[nH]c5ncc(-c6cncc(CNCC7CCCC7)c6)cc45)nc23)c1 [compound 259]	4 nM	167 nM	74.6%	98 nM	–
CN(C)CCOc1cncc(-c2ccc3[nH]nc(-c4nc5c(-c6cccs6)cccc5[nH]4)c3n2)c1 [compound 261]	2 nM	150 nM	142%	3110 nM	10 nM
CC(C)(C)C(=O)Nc1cncc(-c2ccc3[nH]nc(-c4nc5c(-c6ccc(F)s6)ccnc5[nH]4)c3c2)c1 [compound 262]	85 nM	754 nM	120%	16.7 nM	30 nM
CC(C)(C)C(=O)Nc1cncc(-c2cc3c(-c4nc5c(-c6ccc(F)s6)nccc5[nH]4)n[nH]c3cn2)c1 [compound 263]	18 nM	358 nM	40.9%	35.3 nM	–
CC(C)(C)C(=O)Nc1cncc(-c2ccc3[nH]nc(-c4nc5c(-c6ccc(Cl)s6)cncc5[nH]4)c3n2)c1 [compound 265]	8 nM	91 nM	84.7%	551 nM	10 nM
CC(C)CC(=O)Nc1cncc(-c2ccc3[nH]nc(-c4nc5c(-c6ccc(Cl)s6)cncc5[nH]4)c3n2)c1 [compound 266]	15 nM	67 nM	60.6%	1480 nM	10 nM
O=C(Nc1cncc(-c2ccc3[nH]nc(-c4nc5c(-c6ccc(Cl)s6)nccc5[nH]4)c3n2)c1)C1CCC1 [compound 267]	8 nM	9840 nM	60.2%	823 nM	30 nM
O=C(Nc1cncc(-c2ccc3[nH]nc(-c4nc5c(-c6ccc(Cl)s6)cncc5[nH]4)c3n2)c1)C1CCC1 [compound 268]	12 nM	145 nM	67.9%	800 nM	30 nM
O=C(Nc1cncc(-c2ccc3[nH]nc(-c4nc5c(-c6ccc(Cl)s6)ccnc5[nH]4)c3n2)c1)C1CCC1 [compound 269]	12 nM	183 nM	102%	354 nM	10 nM
Clc1ccc(-c2cncc3[nH]c(-c4n[nH]c5ccc(-c6cncc(CN7CCCC7)c6)nc45)nc23)s1 [compound 270]	4 nM	88 nM	62%	3330 nM	10 nM
Cc1ccc(-c2cccc3[nH]c(-c4n[nH]c5ccc(-c6cncc(N)c6)nc45)nc23)s1 [compound 271]	2 nM	34 nM	87.9%	66.3 nM	10 nM
Cc1ccc(-c2nccc3[nH]c(-c4n[nH]c5ccc(-c6cncc(N)c6)cc45)nc23)s1 [compound 272]	5 nM	52 nM	163%	1.9 nM	2700 nM
Cc1ccc(-c2nccc3[nH]c(-c4n[nH]c5cnc(-c6cncc(N)c6)cc45)nc23)s1 [compound 273]	4 nM	29 nM	259%	9.2 nM	10 nM
Cc1ccc(-c2cncc3[nH]c(-c4n[nH]c5cnc(-c6cncc(N)c6)cc45)nc23)s1 [compound 274]	11 nM	203 nM	162%	10.9 nM	100 nM
Cc1ccc(-c2cncc3[nH]c(-c4n[nH]c5ccc(-c6cncc(N)c6)nc45)nc23)s1 [compound 276]	2 nM	9 nM	79.4%	40.7 nM	30 nM

Structure (SMILES)	EC50 [1]	EC50 [2]	Emax [3]	EC50 [4]	EC50 [3]
Cc1ccc(-c2cncc3[nH]c(-c4n[nH]c5cnc(-c6cncc(NC(=O)C7CCC7)c6)cc45)nc23)s1 [compound 277]	6 nM	29 nM	231%	10.1 nM	100 nM
CN(C)CCNc1cc(F)cc(-c2cncc3[nH]c(-c4n[nH]c5ncc(-c6cccnc6)cc45)nc23)c1 [compound 278]	5 nM	36 nM	129%	21 nM	300 nM
CCCCC(=O)Nc1cncc(-c2ccc3[nH]nc(-c4nc5c(-c6cc(F)cc(NCCN(C)C)c6)cncc5[nH]4)c3n2)c1 [compound 279]	2 nM	93 nM	64.7%	> 10000 nM	10 nM
CCCCC(=O)Nc1cncc(-c2ccc3[nH]nc(-c4nc5c(-c6cc(F)cc(NCCN(C)C)c6)ccnc5[nH]4)c3n2)c1 [compound 280]	2 nM	79 nM	71.4%	> 10000 nM	10 nM
CC(C)CC(=O)Nc1cncc(-c2ccc3[nH]nc(-c4nc5c(-c6cc(F)cc(NCCN(C)C)c6)cncc5[nH]4)c3c2)c1 [compound 281]	6 nM	25 nM	82%	22 nM	–
CC(C)Nc1cncc(-c2ccc3[nH]nc(-c4nc5c(-c6cc(F)cc(NCCN(C)C)c6)nccc5[nH]4)c3c2)c1 [compound 282]	4 nM	50 nM	85.1%	202 nM	30 nM
CC(C)Nc1cncc(-c2cnc3[nH]nc(-c4nc5c(-c6cc(F)cc(NCCN(C)C)c6)nccc5[nH]4)c3c2)c1 [compound 283]	4 nM	33 nM	82.9%	154 nM	30 nM
CCNCc1cncc(-c2ccc3[nH]nc(-c4nc5c(-c6cc(F)cc(NCCN(C)C)c6)nccc5[nH]4)c3n2)c1 [compound 285]	1 nM	90 nM	35.6%	> 10000 nM	–
CCNCc1cncc(-c2ccc3[nH]nc(-c4nc5c(-c6cc(F)cc(NCCN(C)C)c6)ccnc5[nH]4)c3n2)c1 [compound 286]	3 nM	82 nM	149%	> 10000 nM	20.6 nM
Cc1ccncc1-c1cc2c(-c3nc4c(-c5cc(F)cc(CNS(C)(=O)=O)c5)cccc4[nH]3)n[nH]c2cn1 [compound 288]	11 nM	37 nM	81.8%	30.4 nM	30 nM
Cc1ccncc1-c1cnc2[nH]nc(-c3nc4c(-c5cc(F)cc(CNS(C)(=O)=O)c5)nccc4[nH]3)c2c1 [compound 289]	4 nM	39 nM	92.8%	124 nM	10 nM
Cc1ccncc1-c1cc2c(-c3nc4c(-c5cc(F)cc(CNS(C)(=O)=O)c5)ccnc4[nH]3)n[nH]c2cn1 [compound 291]	32 nM	54 nM	70%	109 nM	30 nM
CC(C)CC(=O)Nc1cncc(-c2ccc3[nH]nc(-c4nc5c(-c6cc(F)cc(CNS(C)(=O)=O)c6)cncc5[nH]4)c3c2)c1 [compound 292]	9 nM	60 nM	118%	5 nM	100 nM
CS(=O)(=O)NCc1cc(F)cc(-c2nccc3[nH]c(-c4n[nH]c5ccc(-c6cncnc6)cc45)nc23)c1 [compound 293]	16 nM	186 nM	73.1%	40.5 nM	30 nM
CN(C)Cc1cncc(-c2cnc3[nH]nc(-c4nc5c(-c6cc(F)cc(N7CCOCC7)c6)cncc5[nH]4)c3c2)c1 [compound 294]	1 nM	25 nM	114%	21 nM	30 nM
COc1cccc(-c2nccc3[nH]c(-c4n[nH]c5ccc(-c6cccnc6)nc45)nc23)c1 [compound 295]	2 nM	96 nM	50.6%	377 nM	30 nM
COc1cccc(-c2cncc3[nH]c(-c4n[nH]c5ccc(-c6cccnc6)nc45)nc23)c1 [compound 296]	1 nM	55 nM	59.2%	> 10000 nM	30 nM
COc1cccc(-c2ccnc3[nH]c(-c4n[nH]c5ccc(-c6cccnc6)nc45)nc23)c1 [compound 297]	1 nM	84 nM	50.5%	1610 nM	100 nM
Fc1cccc(-c2cncc3[nH]c(-c4n[nH]c5ncc(-c6cccnc6)cc45)cc23)c1 [compound 300]	8 nM	122 nM	35.6%	572 nM	–
